Test results taken from patent US20260193116A1, “MEMBRANE TREATMENT METHOD, BIOFOULING INHIBITION METHOD, AND ENDOTOXIN PRODUCTION INHIBITION METHOD IN WATER SYSTEM” (KURITA WATER INDUSTRIES LTD., priority 2022, published 2026).

Columns and labels:
[1] = system: bacterial flora in a biofilm attached to a RO membrane surface; assay: Bacterial flora analysis (16S rRNA amplicon) of biofilm attached to RO membrane surface after water flow test (Example 2)
[2] = system: biofouling of RO membrane (MFS cell); assay: MFS water flow test (Example 1): differential pressure increase of the RO membrane cell
[3] = system: biofouling of RO membrane (MFS cell); assay: MFS water flow test (Example 3): differential pressure increase of the RO membrane cell; conditions: citric acid + ammonium chloride + sodium phosphate, 35° C., 0.36 mg/L as Cl2 (DPD method), Continuous addition

O=S(=O)(O)NCl.[Na] [Chlorosulfamic acid, sodium monochlorosulfamic acid]
(Negative bacteria/[negative bacteria + positive bacterial]) (%) [1]: 18.2%
Acidovorax existence ratio in bacterial flora [1]: 0.1%
Azotobacter existence ratio in bacterial flora [1]: 0.4%
Cupriavidus existence ratio in bacterial flora [1]: 4.6%
Dominant bacteria in the biofilm (in words) [1]: Mycolicibacterium genus bacteria and Mycobacterium genus bacteria, which are gram-positive bacteria, were dominant
Gram-negative bacteria (%) [1]: 16.7%
Gram-negative bacteria Others existence ratio in bacterial flora [1]: 6.5%
Gram-positive bacteria existence ratio in bacterial flora [1]: 75.1%
Pseudomonas existence ratio in bacterial flora [1]: 4.8%
Ralstonia existence ratio in bacterial flora [1]: 0.3%
Unknown bacteria existence ratio in bacterial flora [1]: 8.2%
Differential pressure suppression effect vs Control [2]: 102%
Differential pressure suppression effect vs Control [3]: 95%
